Series [1] has as its target T1, HDAC2 Human recombinant C-terminal FLAG-tag (Homo sapiens, UniProt Q92769).
T1 construct: FLAG (C); purchased BPS Bioscience 50052
The experiment in a line: Measurement of HDAC2 enzyme inhibitory activity (HTRF). It counts as biochemical. Conditions: recombinant HDAC2, H3K9ac peptide, 3 hours room temperature; read-out: HDAC2 IC50. The method, boiled down: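 Compounds were tested at 8 points in 3-fold dilutions from 99 μM final (n=2) against FLAG-tagged HDAC2 with biotinylated H3K9ac (1-21) peptide (0.6 μM as added). The reaction ran 3 h at room temperature in Tris pH 8.0 buffer, then was stopped with SAHA. Deacetylated product was detected by HTRF (Eu-anti-H3K9me0 antibody, streptavidin-XL665) as the 665/615-620 nm ratio.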
(TR-FRET usually uses a lanthanide donor and a delayed reading to cut background.)

In series [2] the test system is HDACs other than HDAC2 (HDAC2 knockout K562 cells). The experiment in a line: Evaluation of HDAC2 selectivity: H3K9 histone acetylation in HDAC2 knockout K562 cells (AlphaLISA).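 Further: 0% inhibition equals DMSO-treated group.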 It counts as cell-based. Conditions: Homo sapiens, maximum concentration 83.3 μM, 100% = SAHA-treated group, read-out: maximum inhibition rate (H3K9 histone acetylation). How it is done:
Test Example 3: Evaluation of HDAC2 Selectivity
K562 cells were cultured in RPMI1640 medium (SIGMA, R8758) containing 10% FBS (Hyclone, SH30070.03) and 1% penicillin streptomycin (Nacalai Tesque, 26252-94). CompoZr (registered trademark) Zinc Finger Nuclease (Merck) targeting HDAC2 sequences was transfected into K562 cells by electroporation using Nucleofector (Lonza). The cells after transfection were subjected to limiting dilution, and DNA sequencing was performed on the cell clones in which mutations were detected by the PCR method. Cell clones lacking a base number that was not a multiple of 3 in both alleles were identified, and a single-cell cloning was performed on the cell clones to produce HDAC2 knockout K562 cells. It was confirmed that the expression of HDAC2 was not detected by Western blotting in the prepared cells.
By evaluating the H3K9 histone acetylation-enhancing activity of the test compound using HDAC2 knockout K562 cells, the inhibitory activity against HDACs other than HDAC2 was evaluated.
HDAC2 knockout K562 cells stored in liquid nitrogen were thawed and cultured in RPMI1640 medium (Nacalai Tesque, 30264-85) for 2 to 4 days. Using Echo555 (Beckman Coulter), the test compound was dispensed to the assay plate (Corning, 4513) at 37.5 nL/well, and then HDAC2 knockout K562 cells were seeded to 125 cells/4.5 μL/well, and stirred. At this time, the test compound was treated at 8 points (n=2) in the 3-fold dilution series from the maximum concentration of 83.3 μM. After culturing at 37° C. and 5% CO2 overnight, 1.5 μL/well of Lysis buffer (PerkinElmer, AL009F1) was added, and after incubating at room temperature for 15 minutes, 3 μL/well of Extraction buffer (PerkinElmer, AL009F2) was added and the mixture was incubated for 10 minutes at room temperature. Then, 5× antibody solution (prepared by diluting anti-H3K9 Acceptor beads (PerkinElmer, AL114M) 75-fold with a detection buffer prepared by diluting 10×Cell-Histone Detection buffer (PerkinElmer, AL009F3) 10-fold with ultrapure water, and diluting Biotinylated anti H3 antibody (PerkinElmer, AL118M) diluted 150 times with the detection buffer) was added at 3 μL/well, and after incubating at room temperature for 60 minutes, then 5× donor beads solution (prepared by diluting Streptavidin Donor beads (PerkinElmer, 6760002) 75 fold with the detection buffer) was added at 3 μL/well, and the mixture was incubated again at room temperature for 60 minutes, and then the emission value was measured using PHERAstar (BMG LABTECH) (excitation=680 nm, […]). […] For cell toxicity, cell viability rate was evaluated by the PrestoBlue method.

Series [3] deals with T2, human ether-a-go-go related gene (hERG) channel (Homo sapiens, UniProt Q12809).
T2 construct: expressed in transfected cells; host or cells: CHO cells
T2 sequence (Q12809 whole entry): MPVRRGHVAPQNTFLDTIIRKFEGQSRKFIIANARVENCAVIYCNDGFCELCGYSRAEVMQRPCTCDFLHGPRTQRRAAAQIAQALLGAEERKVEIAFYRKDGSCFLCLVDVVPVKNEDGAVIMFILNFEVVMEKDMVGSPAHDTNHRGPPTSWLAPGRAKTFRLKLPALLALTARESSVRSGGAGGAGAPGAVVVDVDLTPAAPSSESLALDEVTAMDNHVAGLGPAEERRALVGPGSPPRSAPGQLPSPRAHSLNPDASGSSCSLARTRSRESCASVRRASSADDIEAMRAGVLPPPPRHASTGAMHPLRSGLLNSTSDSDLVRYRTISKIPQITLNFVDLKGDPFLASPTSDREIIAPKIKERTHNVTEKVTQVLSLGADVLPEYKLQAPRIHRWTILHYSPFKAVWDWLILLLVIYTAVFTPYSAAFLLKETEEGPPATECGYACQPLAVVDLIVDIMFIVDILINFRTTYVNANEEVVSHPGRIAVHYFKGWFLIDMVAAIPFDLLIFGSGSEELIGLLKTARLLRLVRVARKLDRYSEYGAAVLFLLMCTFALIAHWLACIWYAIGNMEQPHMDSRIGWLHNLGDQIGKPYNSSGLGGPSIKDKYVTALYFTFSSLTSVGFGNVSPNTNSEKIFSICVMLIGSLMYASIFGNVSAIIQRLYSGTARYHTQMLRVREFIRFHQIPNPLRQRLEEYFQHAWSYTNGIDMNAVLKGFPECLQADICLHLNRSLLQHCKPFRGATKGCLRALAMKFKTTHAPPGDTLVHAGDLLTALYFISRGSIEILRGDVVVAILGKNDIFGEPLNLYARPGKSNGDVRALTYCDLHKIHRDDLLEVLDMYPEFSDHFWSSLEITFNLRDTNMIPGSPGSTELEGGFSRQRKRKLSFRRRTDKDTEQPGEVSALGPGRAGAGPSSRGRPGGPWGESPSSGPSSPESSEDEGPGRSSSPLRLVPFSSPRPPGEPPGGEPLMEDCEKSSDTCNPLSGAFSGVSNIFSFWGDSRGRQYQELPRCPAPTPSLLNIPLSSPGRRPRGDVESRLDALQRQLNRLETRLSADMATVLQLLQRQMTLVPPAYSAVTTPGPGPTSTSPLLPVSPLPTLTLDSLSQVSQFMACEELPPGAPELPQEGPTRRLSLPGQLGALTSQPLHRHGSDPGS
The experiment in a line: hERG test (whole cell patch clamp). The conditions noted are these: CHO cells expressing hERG; concentration not given. It counts as cell-based. An excerpt:
For the purpose of assessing risk of an electrocardiogram QT interval prolongation of the compound of the present invention, effects of the compound of the present invention on delayed rectifier K^+ current (IKr), which plays an important role in the ventricular repolarization process, was studied using CHO cells expressing human ether-a-go-go related gene (hERG) channel.
After a cell was retained at a membrane potential of −80 mV by whole cell patch clamp method using an automated patch clamp system (QPatch; Sophion Bioscience A/S) and gave a leak potential of −50 mV, IKr induced by depolarization pulse stimulation at +20 mV for 2 seconds, and further, repolarization pulse stimulation at −50 mV for 2 seconds, was recorded. A vehicle, which was the 0.1% dimethyle sulfoxide solution in extracellular solution (NaCl: 145 mmol/L, KCl: 4 mmol/L, CaCl2: 2 mmol/L, MgCl2: 1 mmol/L, glucose:10 mmol/L, HEPES (4-(2-hydroxyethyl)-1-piperazineethanesulfonic acid): 10 mmol/L, pH7.4), or the compound of the present invention had been dissolved at an objective concentration in the extracellular solution was applied to the cell at room temperature for 7 minutes or more. From the recording IKr, an absolute value of the tail peak current was measured based on the current value at the resting membrane potential using analysis software (QPatch assay software; Sophion Bioscience A/S). Further, the % inhibition of tail peak current for the compound of the present invention relative to the tail peak current after application of the vehicle was calculated to assess influence of the compound of the present invention on IKr. The dilution concentration and dilution solvent were changed as necessary.
Background: hERG is a cardiac potassium channel; its block is linked to QT prolongation.

From patent US20230119479A1, “A HISTONE DEACETYLASE INHIBITOR HAVING A NITROGEN-CONTAINING AROMATIC HETEROCYCLYL GROUP” (SHIONOGI & CO., LTD., priority 2019, published 2023) come the findings set out here.

T1 sequence (Q92769 whole entry): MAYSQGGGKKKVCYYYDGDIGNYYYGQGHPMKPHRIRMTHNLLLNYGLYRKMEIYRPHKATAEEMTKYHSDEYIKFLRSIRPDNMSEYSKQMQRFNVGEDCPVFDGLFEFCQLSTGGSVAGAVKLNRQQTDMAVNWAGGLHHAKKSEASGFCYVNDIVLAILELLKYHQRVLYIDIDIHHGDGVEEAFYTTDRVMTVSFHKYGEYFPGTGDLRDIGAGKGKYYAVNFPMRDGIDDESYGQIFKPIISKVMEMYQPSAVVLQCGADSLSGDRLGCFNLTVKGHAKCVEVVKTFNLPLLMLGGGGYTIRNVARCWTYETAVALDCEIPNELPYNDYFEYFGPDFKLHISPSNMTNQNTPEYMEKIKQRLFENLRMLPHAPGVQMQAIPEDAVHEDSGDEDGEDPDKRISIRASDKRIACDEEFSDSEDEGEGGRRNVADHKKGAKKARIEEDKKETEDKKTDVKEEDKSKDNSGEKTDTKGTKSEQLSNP

As usually defined, the IC50 is the point on the concentration scale where inhibition reaches its midpoint. The inhibition is the drop in the measured response relative to a control, in per cent. For the compound `Cn1cc(-c2cnc(C(=O)Nc3nc(-n4cccc4)ccc3N)cn2)cn1` [Compound I-023], the IC50 in series [1] amounted to 180 nM. Besides, in series [2], the inhibition at up to 83.3 µM turned out to be 8%.

Take `Cn1cc(-c2ccc(N)c(NC(=O)c3cnc(C4CC4)cn3)c2)cn1` [Compound I-130]: the IC50 in series [1] came out at 140 nM. In series [3], the “% inhibition of tail peak current (IKr)” value is 3.3%.

For `Cn1cc(-c2cnc(C(=O)Nc3cc(-c4ccc(F)nc4)ccc3N)cn2)cn1` [Compound I-080], the IC50 in series [1] came to 48 nM. In series [2], the inhibition at up to 83.3 µM was determined as 7%. Also, the “% inhibition of tail peak current (IKr)” value in series [3] is given as 9.5%.

Consider `Cn1cc(-c2cnc(C(=O)Nc3nc(-c4cccs4)ccc3N)cn2)cn1` [Compound I-017], for which, in series [1], the IC50 was determined as 220 nM. Moreover, the inhibition at up to 83.3 µM in series [2] was determined as 5%.

In the case of `N#Cc1ccc(C(=O)Nc2cc(-c3ccc(F)nc3)ccc2N)nc1` [Compound I-092], in series [1], the IC50 stood at 250 nM. Also, the inhibition at up to 83.3 µM in series [2] stood at 6%. The “% inhibition of tail peak current (IKr)” value in series [3] amounted to 30%.

Take `CCOc1cnc(C(=O)Nc2cc(-c3ccc(F)nc3)ccc2N)cn1` [Compound I-118]: the IC50 in series [1] is 140 nM. In series [2], the inhibition at up to 83.3 µM stood at 8%. The “% inhibition of tail peak current (IKr)” value in series [3] is recorded as 23.3%.

Regarding `C[C@H](F)COc1cnc(C(=O)Nc2cc(-c3ccc(F)nc3)ccc2N)cn1` (racemic) [Compound I-125], the IC50 in series [1] is 180 nM. The inhibition at up to 83.3 µM in series [2] was determined as 6%. Also, the “% inhibition of tail peak current (IKr)” value in series [3] turned out to be 18.6%.
